{"source": "paper PMC12171880", "about": "“Selectivity and Safety Characterization of a Xanthine–Imidazothiazole Lead Structure: a Novel Tryptophan Hydroxylase Inhibitor of Peripheral Serotonin Synthesis” (ACS Pharmacology & Translational Science, 2025)", "key": {"[1]": {"target": "T1, rat homolog of TH (Rattus norvegicus, UniProt P04177)", "T1 construct": "Eurofins Cerep (contract screening)", "T1 sequence (P04177 whole entry)": "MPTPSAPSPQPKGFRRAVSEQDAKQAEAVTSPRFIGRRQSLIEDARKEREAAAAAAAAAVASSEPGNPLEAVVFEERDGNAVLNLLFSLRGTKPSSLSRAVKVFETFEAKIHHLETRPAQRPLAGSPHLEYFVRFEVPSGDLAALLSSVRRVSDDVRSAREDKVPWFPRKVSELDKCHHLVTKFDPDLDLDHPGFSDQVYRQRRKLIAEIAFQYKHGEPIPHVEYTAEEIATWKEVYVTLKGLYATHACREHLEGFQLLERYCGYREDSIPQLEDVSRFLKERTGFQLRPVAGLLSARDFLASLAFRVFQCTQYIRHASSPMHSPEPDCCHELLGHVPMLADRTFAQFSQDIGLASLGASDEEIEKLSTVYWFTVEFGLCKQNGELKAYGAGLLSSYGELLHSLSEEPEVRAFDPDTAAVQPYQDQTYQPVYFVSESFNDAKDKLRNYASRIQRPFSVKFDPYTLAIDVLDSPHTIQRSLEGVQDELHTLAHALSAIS", "assay": "Eurofins Diversity Panel enzyme assay, rat TH", "format": "biochemical", "protocol": "TPT-004 was evaluated at a concentration of 10 μM in a total of 97 binding, enzyme, and uptake assays (Diversity Panel) by Eurofins Cerep (Celle l’Evescault, France). Compound binding was calculated as % inhibition of the binding of a ligand specific to each target. The compound enzyme inhibition effect was calculated as percentage inhibition of the control enzyme activity. Results showing an inhibition (or stimulation for assays run under basal conditions) of >50% are considered to represent significant effects of the test compounds. Results showing an inhibition (or stimulation) between 25% and 50% are indicative of weak to moderate effects. Results showing an inhibition (or stimulation) lower than 25% are not considered significant and are mostly attributable to variability in the signal around the control level. […] In each experiment, and if applicable, the respective reference compound was tested concurrently with TPT-004, and the data were compared with historical values determined at Eurofins. […]\nThe results are expressed as a percent of control-specific binding: measured specific binding/control specific binding×100 and as a percent inhibition of control-specific binding: 100−(measured specific binding/control specific binding×100) obtained in the presence of TPT-004. […]"}, "[2]": {"test_system": "Sprague–Dawley rats", "assay": "Dose-range finding study in rats, hematology", "format": "in vivo, rat", "design": "red cell distribution width (RDW): unit not given here", "settings": "for ERY / HCT / HGB / LEU / LYM / LYM (%) / MCH / MCHC / MCV / MON / MON (%) / MPV / NEU / NEU (%) / PCT / PDWc / PDWs / PLT / RDWc / RDWs: day 8", "protocol": "TPT-004 was formulated in 0.5% (w/v) CMC-Na in water and administered by oral gavage (PO) twice daily (b.i.d.) with a 12 h interval to the treatment groups (3 male and 3 female Sprague–Dawley rats each) for 8 days (15 successive applications). Rats were dosed with 10, 45, and 200 mg/kg, i.e., daily doses of 20, 90, and 400 mg/kg. In addition, a control group was dosed at the same frequency as the vehicle (0.5% CMC-Na).\nA blood sample of 100 μL was obtained from each rat by puncturing one of the lateral tail veins under short isoflurane anesthesia. Blood was collected in tubes containing lithium heparin and gently mixed. After centrifugation (10 min at 3000g, 4 °C), plasma was separated and stored at −20 °C until LC-MS analysis. In addition, on day 8, the rats were exsanguinated by cardiac puncture under isoflurane anesthesia. A volume of 100 μL of blood (K3-EDTA) was used for immediate cell blood count, while the rest of the blood was mixed with lithium heparin and centrifuged to generate plasma for clinical chemistry analysis."}, "[3]": {"settings": "two rodent species; previously published pharmacokinetic data; cited from earlier work"}, "[4]": {"test_system": "Sugen–Hypoxia rat model of pulmonary arterial hypertension", "settings": "previous study; cited from earlier work"}, "[5]": {"settings": "10, 45, or 200 mg/kg BID PO, 8 days"}}, "data": [{"smiles": "CCn1c(=O)[nH]c(=O)c2c1nc(Cc1cn3cc(C)sc3n1)n2CC1COC1", "note": "[TPT-004]", "values": [{"measurement": "inhibition at 10 µM", "setting": "[1]", "result": 87.8, "unit": "%"}, {"measurement": "ERY", "setting": "[2]; 10 mg/kg PO BID", "result": "8.15e+12", "unit": "L⁻¹"}, {"measurement": "HCT", "setting": "[2]; 10 mg/kg PO BID", "result": 49.64, "unit": "%"}, {"measurement": "HGB", "setting": "[2]; 10 mg/kg PO BID", "result": 13.9, "unit": "g/dL"}, {"measurement": "LEU", "setting": "[2]; 10 mg/kg PO BID", "result": "1.308e+10", "unit": "L⁻¹"}, {"measurement": "LYM", "setting": "[2]; 10 mg/kg PO BID", "result": "1.091e+10", "unit": "L⁻¹"}, {"measurement": "LYM (%)", "setting": "[2]; 10 mg/kg PO BID", "result": 82.8, "unit": "%"}, {"measurement": "MCH", "setting": "[2]; 10 mg/kg PO BID", "result": 17.1, "unit": "pg"}, {"measurement": "MCHC", "setting": "[2]; 10 mg/kg PO BID", "result": 28.0, "unit": "g/dL"}, {"measurement": "MCV", "setting": "[2]; 10 mg/kg PO BID", "result": 61, "unit": "fL"}, {"measurement": "MON", "setting": "[2]; 10 mg/kg PO BID", "result": "5.8e+08", "unit": "L⁻¹"}, {"measurement": "MON (%)", "setting": "[2]; 10 mg/kg PO BID", "result": 4.0, "unit": "%"}, {"measurement": "MPV", "setting": "[2]; 10 mg/kg PO BID", "result": 8.2, "unit": "fL"}, {"measurement": "NEU", "setting": "[2]; 10 mg/kg PO BID", "result": "1.59e+09", "unit": "L⁻¹"}, {"measurement": "NEU (%)", "setting": "[2]; 10 mg/kg PO BID", "result": 13.3, "unit": "%"}, {"measurement": "PCT", "setting": "[2]; 10 mg/kg PO BID", "result": 0.15, "unit": "%"}, {"measurement": "PDWc", "setting": "[2]; 10 mg/kg PO BID", "result": 33.7, "unit": "%"}, {"measurement": "PDWs", "setting": "[2]; 10 mg/kg PO BID", "result": 12.3, "unit": "fL"}, {"measurement": "PLT", "setting": "[2]; 10 mg/kg PO BID", "result": "1.69e+11", "unit": "L⁻¹"}, {"measurement": "RDWc", "setting": "[2]; 10 mg/kg PO BID", "result": 16.4, "unit": "%"}, {"measurement": "RDWs", "setting": "[2]; 10 mg/kg PO BID", "result": 37.6, "unit": "fL"}, {"measurement": "ERY", "setting": "[2]; 45 mg/kg PO BID", "result": "8.12e+12", "unit": "L⁻¹"}, {"measurement": "HCT", "setting": "[2]; 45 mg/kg PO BID", "result": 48.67, "unit": "%"}, {"measurement": "HGB", "setting": "[2]; 45 mg/kg PO BID", "result": 14.0, "unit": "g/dL"}, {"measurement": "LEU", "setting": "[2]; 45 mg/kg PO BID", "result": "1.748e+10", "unit": "L⁻¹"}, {"measurement": "LYM", "setting": "[2]; 45 mg/kg PO BID", "result": "1.446e+10", "unit": "L⁻¹"}, {"measurement": "LYM (%)", "setting": "[2]; 45 mg/kg PO BID", "result": 82.7, "unit": "%"}, {"measurement": "MCH", "setting": "[2]; 45 mg/kg PO BID", "result": 17.3, "unit": "pg"}, {"measurement": "MCHC", "setting": "[2]; 45 mg/kg PO BID", "result": 28.8, "unit": "g/dL"}, {"measurement": "MCV", "setting": "[2]; 45 mg/kg PO BID", "result": 60, "unit": "fL"}, {"measurement": "MON", "setting": "[2]; 45 mg/kg PO BID", "result": "1.07e+09", "unit": "L⁻¹"}, {"measurement": "MON (%)", "setting": "[2]; 45 mg/kg PO BID", "result": 6.2, "unit": "%"}, {"measurement": "MPV", "setting": "[2]; 45 mg/kg PO BID", "result": 8.3, "unit": "fL"}, {"measurement": "NEU", "setting": "[2]; 45 mg/kg PO BID", "result": "1.95e+09", "unit": "L⁻¹"}, {"measurement": "NEU (%)", "setting": "[2]; 45 mg/kg PO BID", "result": 11.1, "unit": "%"}, {"measurement": "PCT", "setting": "[2]; 45 mg/kg PO BID", "result": 0.08, "unit": "%"}, {"measurement": "PDWc", "setting": "[2]; 45 mg/kg PO BID", "result": 36.1, "unit": "%"}, {"measurement": "PDWs", "setting": "[2]; 45 mg/kg PO BID", "result": 13.9, "unit": "fL"}, {"measurement": "PLT", "setting": "[2]; 45 mg/kg PO BID", "result": "1.04e+11", "unit": "L⁻¹"}, {"measurement": "RDWc", "setting": "[2]; 45 mg/kg PO BID", "result": 17.2, "unit": "%"}, {"measurement": "RDWs", "setting": "[2]; 45 mg/kg PO BID", "result": 38.7, "unit": "fL"}, {"measurement": "red cell distribution width (RDW)", "setting": "[2]; 200 mg/kg BID, vehicle 16.4 ± 0.8, p = 0.0109", "result": "19.3 ± 1.6"}, {"measurement": "ERY", "setting": "[2]; 200 mg/kg PO BID", "result": "8.03e+12", "unit": "L⁻¹"}, {"measurement": "HCT", "setting": "[2]; 200 mg/kg PO BID", "result": 45.70, "unit": "%"}, {"measurement": "HGB", "setting": "[2]; 200 mg/kg PO BID", "result": 13.1, "unit": "g/dL"}, {"measurement": "LEU", "setting": "[2]; 200 mg/kg PO BID", "result": "1.534e+10", "unit": "L⁻¹"}, {"measurement": "LYM", "setting": "[2]; 200 mg/kg PO BID", "result": "1.263e+10", "unit": "L⁻¹"}, {"measurement": "LYM (%)", "setting": "[2]; 200 mg/kg PO BID", "result": 82.9, "unit": "%"}, {"measurement": "MCH", "setting": "[2]; 200 mg/kg PO BID", "result": 16.4, "unit": "pg"}, {"measurement": "MCHC", "setting": "[2]; 200 mg/kg PO BID", "result": 28.7, "unit": "g/dL"}, {"measurement": "MCV", "setting": "[2]; 200 mg/kg PO BID", "result": 57, "unit": "fL"}, {"measurement": "MON", "setting": "[2]; 200 mg/kg PO BID", "result": "7.4e+08", "unit": "L⁻¹"}, {"measurement": "MON (%)", "setting": "[2]; 200 mg/kg PO BID", "result": 4.8, "unit": "%"}, {"measurement": "MPV", "setting": "[2]; 200 mg/kg PO BID", "result": 8.3, "unit": "fL"}, {"measurement": "NEU", "setting": "[2]; 200 mg/kg PO BID", "result": "1.97e+09", "unit": "L⁻¹"}, {"measurement": "NEU (%)", "setting": "[2]; 200 mg/kg PO BID", "result": 12.3, "unit": "%"}, {"measurement": "PCT", "setting": "[2]; 200 mg/kg PO BID", "result": 0.14, "unit": "%"}, {"measurement": "PDWc", "setting": "[2]; 200 mg/kg PO BID", "result": 35.8, "unit": "%"}, {"measurement": "PDWs", "setting": "[2]; 200 mg/kg PO BID", "result": 13.7, "unit": "fL"}, {"measurement": "PLT", "setting": "[2]; 200 mg/kg PO BID", "result": "1.79e+11", "unit": "L⁻¹"}, {"measurement": "RDWc", "setting": "[2]; 200 mg/kg PO BID", "result": 19.3, "unit": "%"}, {"measurement": "RDWs", "setting": "[2]; 200 mg/kg PO BID", "result": 40.8, "unit": "fL"}, {"measurement": "hematology parameters, overall", "setting": "[2]; [5]", "result": "did not alter the hematology parameters"}, {"measurement": "number of platelets (PLT), differences to control", "setting": "[2]; [5]", "result": "these differences were not significant"}, {"measurement": "blood-brain barrier penetration", "setting": "[3]", "result": "exceptionally low blood-brain barrier penetration"}, {"measurement": "dose needed to achieve the therapeutic effects", "setting": "[4]", "result": 10, "unit": "mg/kg BID"}]}]}
